The values that follow come from patent publication US6630312B2, “Method for identifying compounds for treatment of insulin resistance” (Joslin Diabetes Center, Inc., priority 1999, dated 2003).

The subject of series [1] is IKKβ. To be noted: without activating upstream elements in the TNF-α signaling cascade; cited from earlier work.
In series [2] the test system is isolated tissues and cultured cells. Particulars: cited from earlier work.
For another series, the system named is IRS-2. Description: Tyrosine phosphorylation of IRS-2 in Fao hepatoma cells, TNF-α induced 'insulin resistance'. It counts as cell-based. Particulars: for Reversal of TNF-α induced 'insulin resistance': doses known to have potent biological effects, cells not restated; for Tyrosine-phosphorylation of IRS-2: Fao hepatoma cells.
Another series has as its system IR β-subunit. As to the kind of experiment: Insulin-stimulated tyrosine phosphorylation of IR in 3T3-L1 adipocytes made 'insulin resistant'. It counts as cell-based. To be noted: 3T3-L1 adipocytes. As for the experimental part:
(§1) Culture cells were used as follows to investigate the mechanisms relating to salicylate treatment to the in vivo reversal of insulin resistance. TNF-α treatment of 3T3-L1 adipocytes induced ‘insulin resistance’, as judged by significant decreases in insulin-stimulated tyrosine phosphorylation of IR β-subunit (42±11%) and IRS-1 (37±9%). TNF-α mediated ‘insulin resistance’ was reversed by pretreatment with high-dose (5 mM) aspirin. IR and IRS-1 phosphorylation levels were restored to 126±24% and 136±35%, respectively, compared to untreated controls; IR and IRS-1 protein levels were unchanged in TNF-α and aspirin-treated cells. TNF-α activates a cascade of adapters and kinases, including TRADD, RIP, TRAF2, and TAB1, which act upstream of JNK, p38 MAPK, and the IKK complex. Okadaic acid and calyculin A, two phosphatase inhibitors, also activate IKKβ (DiDonato et al. (1997) Nature 388:548; Harhaj & Sun (1997) J Biol Chem 272:5409), but without activating upstream elements in the TNF-α signaling cascade. Okadaic acid and calyculin A also induce ‘insulin resistance’ in isolated tissues and cultured cells (Robinson et al (1993) Am J Physiol 265:E36; Paz et al (1997) J. Biol Chem 272:29911). Therefore, it was determined whether aspirin would reverse ‘insulin resistance’ caused by these inhibitors. Marked reductions in insulin-stimulated IR (29±12%) and IRS-1 (16±2%) tyrosine-phosphorylation were prevented by incubating the cells with high-dose aspirin (109±15% and 93±25%, respectively).
(§2) Hyperglycemia- and hyperinsulinemia-induced insulin resistance in diabetic subjects can be mimicked in cell culture by incubation with high concentrations of glucose and insulin. Potential mechanisms include glucose-induced activation of PKC, which can activate IKK. […] Concurrent treatment with aspirin restored IR (107±23%) and IRS-1 (90±23%) tyrosine-phosphorylation to levels seen in cells incubated at 5.5 mM glucose. […] Protein levels were restored by concurrent treatment with aspirin. Serine phosphorylation of IκB leads to ubiquitination and proteosome-mediated degradation. IRS proteins may be degraded by a similar route and in both cases, downregulation was inhibited by aspirin.

Series [3] has as its system IRS-1. Description: Insulin-stimulated tyrosine phosphorylation of IRS-1 in 3T3-L1 adipocytes made 'insulin resistant'. The format is cell-based. To be noted: 3T3-L1 adipocytes, TNF-α treatment alone. As for the experimental part: as §1, §2
The subject of the next series is IR. Description: Insulin-stimulated IR activation in untransfected 293 cells. Particulars: TNF-α treatment. It counts as cell-based. The source says:
(§3) However, TNF-α is a potential mediator of acquired insulin resistance (Lang et al. (1992) Endocrinology 130:43; Feinstein et al. (1993) J Biol Chem 268:26055; Hotamisligil et al. (1993) Science 259:87; Hotamisligil et al. (1994) J Clin Invest 94:1543). TNF-α activates the IKK complex. TNF-α treatment of untransfected 293 cells reduced insulin-stimulated IR activation to 29±2% of untreated controls. Expression of kinase deficient, dominant inhibitory IKKα(K44A) or IKKβ(K44A) reversed TNF-α-inhibited IR activation. In fact, dominant-inhibitory IKKβ caused a 60% increase in insulin-stimulated IR tyrosine-phosphorylation over controls, whether or not cells had been treated with TNF-α. […] There is in vivo support for this, as well.

The subject of a further series is AKT. Description: AKT activation in 293 cells. The format is cell-based. Particulars: TNF-α treatment.
Source text: as §3

The test system of another series is Zucker fa/fa rats. Description: Effects of high-dose salicylates in Zucker fa/fa rats (GTT, ITT, serum lipids, ALT). Particulars: Zucker fa/fa rats, 120 mg/kg/day. The source says:
(§4) Ob/ob mice are leptin deficient.

For series [4] the following is noted: 120 mg/kg/day continuous subcutaneous infusion.
Source text: as §4

The subject of another series is Insulin receptor (IR). As to the kind of experiment: Insulin receptor tyrosine autophosphorylation in tissues from treated Zucker rats. The format is in vivo, rat. To be noted: liver and muscle of treated Zucker rats vs untreated. As for the experimental part:
(§5) Tissues were isolated from treated animals and insulin signaling proteins were analyzed. […] A cascade consisting of insulin receptor (IR), insulin-receptor substrate (IRS) proteins, PI 3-kinase and 3-phosphoinositide-dependent protein kinase-1 (PDK1), is required for maintenance of metabolic homeostasis.

In a further series the test system is AKT kinase. Description: Insulin-stimulated AKT phosphorylation in tissues from treated Zucker rats. It counts as in vivo, rat. To be noted: liver and muscle of treated Zucker rats vs untreated. On the procedure:
as §5

Series [5] concerns IRS-1. Description: Electrophoretic mobility of IRS-1 from livers of treated animals. The format is in vivo. Particulars: animal livers; suggests decrease in Ser/Thr phosphorylation. The text has this: In cultured cells, IRS proteins are especially prone to phosphorylation on serine and threonine residues, which opposes the effect of tyrosine phosphorylation by inhibiting signaling.

The subject of a further series is ob/ob mice. Particulars: ob/ob mice, 120 mg/kg/day.
Series [6] has as its target T1, IKKβ (Homo sapiens, UniProt O14920).
T1 sequence (O14920 1-756): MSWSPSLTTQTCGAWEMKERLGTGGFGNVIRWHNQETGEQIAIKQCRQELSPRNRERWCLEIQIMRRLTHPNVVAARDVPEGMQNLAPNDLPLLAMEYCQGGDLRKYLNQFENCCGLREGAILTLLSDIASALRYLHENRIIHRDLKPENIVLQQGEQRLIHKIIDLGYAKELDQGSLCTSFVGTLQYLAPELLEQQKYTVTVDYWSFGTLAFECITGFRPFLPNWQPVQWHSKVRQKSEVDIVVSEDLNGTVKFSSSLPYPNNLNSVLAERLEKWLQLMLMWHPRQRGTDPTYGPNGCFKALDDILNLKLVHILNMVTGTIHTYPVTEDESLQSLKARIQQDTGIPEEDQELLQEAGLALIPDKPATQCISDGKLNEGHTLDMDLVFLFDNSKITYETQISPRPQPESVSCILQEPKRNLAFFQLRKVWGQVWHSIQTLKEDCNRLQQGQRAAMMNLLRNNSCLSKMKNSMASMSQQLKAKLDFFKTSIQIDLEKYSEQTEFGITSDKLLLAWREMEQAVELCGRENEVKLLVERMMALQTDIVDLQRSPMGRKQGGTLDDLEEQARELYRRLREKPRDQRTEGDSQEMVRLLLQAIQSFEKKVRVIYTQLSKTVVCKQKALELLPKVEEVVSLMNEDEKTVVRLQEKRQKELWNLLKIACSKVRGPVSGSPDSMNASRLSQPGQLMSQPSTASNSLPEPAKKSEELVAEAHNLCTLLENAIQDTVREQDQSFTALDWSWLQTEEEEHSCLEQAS
To be noted: Yin et al (1998); cited from earlier work.

Protocol for ob/ob mice: FIGS. 1A-H: In vivo effects of aspirin in Zucker fatty rats and ob/ob mice. (panels A-F) Twelve-week-old male Zucker rats (Harlan) and (panels G,H) eight-week-old ob/ob and ob/+ mice (Jackson Labs) were given free access to food and water. […] For glucose tolerance tests (GTT), glucose (2.0 g/kg) was administered by oral gavage (rats) or intraperitoneal injection (mice) after an overnight fast. (panels A,C) Blood glucose and (panels B,D) serum insulin levels were determined during oral glucose tolerance tests in (panels A,B) six Zucker fa/fa rats and (panels C,D) six fa/+ rats. For insulin tolerance tests (ITT) in (panel E) six Zucker fa/fa rats, insulin (2.0 U/kg) was injected intraperitoneally after an overnight fast. (panel F) Cholesterol (Chol), triglyceride (TG), long chain free fatty acid (FFA), and liver alanine aminotransferase (ALT) levels were measured in sera from fasting Zucker fa/fa rats. Glucose tolerance tests were conducted with (panel G) ten ob/ob mice and (panel H) ten ob/+ mice. Data are mean±SEM values; some SEM values are within the area of the symbols.
A determination of the effects of high-dose salicylates on obese rodents with severe insulin resistance was performed as follows. Twelve-week-old male Zucker fa/fa rats and eight-week-old male ob/ob mice were treated for 3-4 weeks with 120 mg/kg/day of aspirin or salicylate, administered by continuous subcutaneous infusion; this dose is roughly equivalent to 5-10 g/day in humans.

As to `C=C1[C@@H](O)[C@@H]2O[C@]3(CC[C@H](/C=C/[C@@H](C)[C@@H]4CC(C)=C[C@@]5(O[C@H](C[C@@](C)(O)C(=O)O)CC[C@H]5O)O4)O3)CC[C@H]2O[C@@H]1[C@@H](O)C[C@H](C)[C@H]1O[C@@]2(CCCCO2)CC[C@H]1C` [Okadaic acid], the “Effect on IKKβ” value in the series on IKKβ [1] is reported as “activate”. The “'Insulin resistance' in isolated tissues and cultured cells” value in [2] is given as “induce”.

As for `COC[C@@H]([C@H](O)[C@H](O)C(=O)NCC[C@H](C)c1nc(/C=C/C[C@@H]2O[C@]3(C[C@@H](O)[C@@H]2C)O[C@H]([C@H](C[C@H](O)[C@H](C)[C@H](O)[C@H](C)/C=C(C)/C(C)=C/C=C/C(C)=C\C#N)OC)[C@H](OP(=O)(O)O)C3(C)C)co1)N(C)C` [calyculin A], in the series on IKKβ [1], the “Effect on IKKβ” value is recorded as “activate”. Also, the “'Insulin resistance' in isolated tissues and cultured cells” value in series [2] is “induce”.

With `CC(C)Cc1ccc(C(C)C(=O)O)cc1` (stereo not shown) [ibuprofen], the “Reversal of TNF-α induced 'insulin resistance'” value (shortened to “Reversal”) in the series with IRS-2 is “Neither ibuprofen nor naproxen, two NSAID inhibitors of COX1 and COX2, reversed”.

On to TNF-α, for which the “IR and IRS-1 protein levels” value in the series with IR β-subunit (TNF-α and aspirin-treated cells) is “unchanged”. The “Insulin-stimulated tyrosine phosphorylation of IR β-subunit” value in the series on IR β-subunit (TNF-α treatment alone) amounted to 42±11%. The “Insulin-stimulated tyrosine phosphorylation of IRS-1” value in the series on IRS-1 [3] is given as 37±9%. The “Tyrosine-phosphorylation of IRS-2” value in the series with IRS-2 (TNF-α treatment alone) was found to be 39±9%. Also, the “Insulin-stimulated IR activation, of untreated controls” value in the series with IR is on record as 29±2%. In the series on AKT, the AKT activation was 18±15%.

`CS(=O)(=O)Nc1ccc([N+](=O)[O-])cc1OC1CCCCC1` [NS-398]: the “Reversal” value with IRS-2 was “no effect”.

Regarding `O=C([O-])c1ccccc1O.[Na+]` [salicylate, sodium salicylate], the “Food intake, blood chemistry, or body weight” value in the series with Zucker fa/fa rats was “Neither aspirin nor salicylate affected”. For the same compound, in series [4], the “Serum salicylate levels, mean” value is 0.81 ± 0.25 mM and the “Serum salicylate levels, range” value lay within 0.3 to 1.3 mM. Further, the “Insulin receptor (IR) tyrosine autophosphorylation” value in the series on Insulin receptor (IR) is “Significantly increased stimulation”. In addition, the “Insulin-stimulated AKT phosphorylation” value in the series with AKT kinase was “increased”. Besides, the “Electrophoretic mobility of IRS-1” value in the series with IRS-1 [5] was “increased”. The “Tyrosine-phosphorylation of IRS-2” value in the series on IRS-2 (TNF-α plus drug) was determined as 89±8%. In addition, the “Food intake, blood chemistry, or body weight” value in the series on ob/ob mice is listed as “Neither aspirin nor salicylate affected”. Moreover, the “Inhibition of IKKβ, relative potency” value on IKKβ [6] is given as “equipotent inhibitors”.

For the compound `COc1ccc2cc([C@H](C)C(=O)O)ccc2c1` [naproxen], the “Reversal” value in the series on IRS-2 is “Neither ibuprofen nor naproxen, two NSAID inhibitors of COX1 and COX2, reversed”.
